# Test results taken from ChEMBL document CHEMBL2177100, “Structural optimization and structure-activity relationships of N2-(4-(4-Methylpiperazin-1-yl)phenyl)-N8-phenyl-9H-purine-2,8-diamine derivatives, a new class of reversible kinase inhibitors targeting both EGFR-activating and resistance mutations” (J Med Chem, 2012).
# Activity calls are given as the source filed them. No cut-off for these calls is given here.
# How the values were obtained:
# [1] = test system: A-431; assay: Cytotoxicity against human A431 cells incubated for 72 hrs by MTT assay; type: functional, cell-based; conditions: A-431, 72 h
# [2] = Inhibition of human recombinant CK1 by radiometric kinase assay
# [3] = Inhibition of human recombinant PKA by radiometric kinase assay
# [4] = molecular target: Mitogen-activated protein kinase 12 (Homo sapiens, UniProt P53778); assay: Inhibition of human recombinant p38gamma by radiometric kinase assay
# [5] = test system: NCI-H1975; assay: Cytotoxicity against human NCI-H1975 cells incubated for 72 hrs by MTT assay; type: functional, cell-based; conditions: NCI-H1975, 72 h
# [6] = test system: HCC827; assay: Antitumor activity against human HCC827 cells xenografted in BALB/c mouse assessed as reduction tumor volume at 1 mg/kg, po qd; type: functional, organism-based; design: dose 1 mg/kg
# [7] = molecular target: Serine/threonine-protein kinase PLK1 (Homo sapiens, UniProt P53350); assay: Inhibition of human recombinant PLK1 by radiometric kinase assay
# [8] = test system: HepG2; assay: Cytotoxicity against human HepG2 cells incubated for 72 hrs by MTT assay; type: functional, cell-based; conditions: HepG2, 72 h
# [9] = molecular target: Serine/threonine-protein kinase WNK1 (Homo sapiens, UniProt Q9H4A3); assay: Inhibition of human recombinant WNK1 by radiometric kinase assay
# [10] = test system: Mus musculus; assay: Inhibition of EGFR phosphorylation in human NCI-H1975 cells xenografted in BALB/c mouse at 50 mg/kg/day, po for 10 days by immunohistochemistry; type: functional, organism-based
# [11] = Tmax in Sprague-Dawley rat at 20 mg/kg, po; type: ADME, organism-based; design: dose 20 mg/kg, route oral; conditions: in vivo
# [12] = test system: MDA-MB-231; assay: Cytotoxicity against human MDA-MB-231 cells incubated for 72 hrs by MTT assay; type: functional, cell-based; conditions: MDA-MB-231, 72 h
# [13] = AUC (0 to 24 hrs) in Sprague-Dawley rat at 20 mg/kg, po; type: ADME, organism-based; design: time < 24 hr, dose 20 mg/kg, route oral; conditions: plasma
# [14] = molecular target: Proto-oncogene tyrosine-protein kinase Src (Homo sapiens, UniProt P12931); assay: Inhibition of human recombinant SRC by radiometric kinase assay
# [15] = molecular target: Receptor tyrosine-protein kinase erbB-4 (Homo sapiens, UniProt Q15303); assay: Inhibition of human recombinant ERBB4 by radiometric kinase assay
# [16] = test system: PC-9; assay: Cytotoxicity against human PC9 cells incubated for 72 hrs by MTT assay; type: functional, cell-based; conditions: PC-9, 72 h
# [17] = molecular target: Mast/stem cell growth factor receptor Kit (Homo sapiens, UniProt P10721); assay: Inhibition of human recombinant KIT by radiometric kinase assay
# [18] = molecular target: Hepatocyte growth factor receptor (Homo sapiens, UniProt P08581); assay: Inhibition of human recombinant MET by radiometric kinase assay
# [19] = molecular target: Protein kinase C alpha type (Homo sapiens, UniProt P17252); assay: Inhibition of human recombinant PKCalpha by radiometric kinase assay
# [20] = Inhibition of human recombinant CaMK2 by radiometric kinase assay
# [21] = molecular target: Cyclin-dependent kinase 2 (Homo sapiens, UniProt P24941); assay: Inhibition of human recombinant CDK2 by radiometric kinase assay
# [22] = test system: Calu-3; assay: Cytotoxicity against human Calu3 cells incubated for 72 hrs by MTT assay; type: functional, cell-based; conditions: Calu-3, 72 h
# [23] = Binding affinity to […] EGFR 747-E749del, A750P mutant by KINOMEscan kinase binding assay
# [24] = test system: HCC827; assay: Antitumor activity against human HCC827 cells xenografted in BALB/c mouse assessed as reduction tumor volume at 5 mg/kg, po qd; type: functional, organism-based; design: dose 5 mg/kg
# [25] = molecular target: MAP kinase-interacting serine/threonine-protein kinase 2 (Homo sapiens, UniProt Q9HBH9); assay: Inhibition of human recombinant MNK2 by radiometric kinase assay
# [26] = molecular target: Insulin-like growth factor 1 receptor (Homo sapiens, UniProt P08069); assay: Inhibition of human recombinant IGF1R by radiometric kinase assay
# [27] = molecular target: Non-receptor tyrosine-protein kinase TYK2 (Homo sapiens, UniProt P29597); assay: Inhibition of human recombinant TYK2 by radiometric kinase assay
# [28] = test system: HCC827; assay: Antitumor activity against human HCC827 cells xenografted in BALB/c mouse assessed as reduction tumor volume at 20 mg/kg, po qd; type: functional, organism-based; design: dose 20 mg/kg
# [29] = Half life in Sprague-Dawley rat at 20 mg/kg, po; type: ADME, organism-based; design: dose 20 mg/kg, route oral; conditions: in vivo
# [30] = test system: FaDu; assay: Cytotoxicity against human FADU cells incubated for 72 hrs by MTT assay; type: functional, cell-based
# [31] = molecular target: Mitogen-activated protein kinase 9 (Homo sapiens, UniProt P45984); assay: Inhibition of human recombinant JNK2 by radiometric kinase assay
# [32] = test system: NCI-H1975; assay: Antitumor activity against human NCI-H1975 cells xenografted in BALB/c mouse assessed as reduction in Ki67 expression at 50 mg/kg/day, po for 10 days by immunohistochemistry; type: functional, organism-based
# [33] = Binding affinity to […] EGFR […] mutant by KINOMEscan kinase binding assay
# [34] = molecular target: Tyrosine-protein kinase JAK3 (Homo sapiens, UniProt P52333); assay: Inhibition of human recombinant JAK3 by radiometric kinase assay
# Chain of Tyrosine-protein kinase JAK3 (P52333 whole entry): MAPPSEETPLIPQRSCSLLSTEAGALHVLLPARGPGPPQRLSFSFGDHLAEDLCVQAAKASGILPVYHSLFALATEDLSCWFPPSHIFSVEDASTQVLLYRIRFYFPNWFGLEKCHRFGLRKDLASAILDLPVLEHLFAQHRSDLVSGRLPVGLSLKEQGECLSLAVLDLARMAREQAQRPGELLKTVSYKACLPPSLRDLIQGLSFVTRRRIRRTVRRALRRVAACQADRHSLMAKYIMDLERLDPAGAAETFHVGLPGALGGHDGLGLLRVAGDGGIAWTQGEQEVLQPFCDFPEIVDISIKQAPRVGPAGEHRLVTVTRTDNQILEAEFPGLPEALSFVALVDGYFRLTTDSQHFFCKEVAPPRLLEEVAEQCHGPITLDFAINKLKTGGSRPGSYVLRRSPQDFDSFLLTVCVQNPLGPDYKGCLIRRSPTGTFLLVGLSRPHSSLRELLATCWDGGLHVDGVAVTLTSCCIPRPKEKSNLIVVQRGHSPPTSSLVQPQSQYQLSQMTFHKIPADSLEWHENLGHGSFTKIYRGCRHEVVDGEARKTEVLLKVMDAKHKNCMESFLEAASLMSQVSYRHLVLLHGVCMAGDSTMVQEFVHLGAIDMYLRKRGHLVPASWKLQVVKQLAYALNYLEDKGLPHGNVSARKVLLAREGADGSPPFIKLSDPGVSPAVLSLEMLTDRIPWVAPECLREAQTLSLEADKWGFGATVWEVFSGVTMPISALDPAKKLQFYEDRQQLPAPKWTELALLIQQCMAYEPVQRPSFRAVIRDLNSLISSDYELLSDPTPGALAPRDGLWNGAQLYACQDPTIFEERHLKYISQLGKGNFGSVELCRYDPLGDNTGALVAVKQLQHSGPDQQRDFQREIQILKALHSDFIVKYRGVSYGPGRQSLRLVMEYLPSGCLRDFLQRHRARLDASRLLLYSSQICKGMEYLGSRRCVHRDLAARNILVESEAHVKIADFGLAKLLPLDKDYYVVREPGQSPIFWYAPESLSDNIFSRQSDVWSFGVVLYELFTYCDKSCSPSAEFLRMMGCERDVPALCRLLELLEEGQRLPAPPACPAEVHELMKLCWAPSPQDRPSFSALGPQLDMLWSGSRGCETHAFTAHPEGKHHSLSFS
# [35] = molecular target: Interleukin-1 receptor-associated kinase 4 (Homo sapiens, UniProt Q9NWZ3); assay: Inhibition of human recombinant IRAK4 by radiometric kinase assay
# [36] = test system: NCI-H1975; assay: Antitumor activity against human NCI-H1975 cells xenografted in BALB/c mouse assessed as inhibition of tumor growth at 25 mg/kg, po qd; type: functional; conditions: read-out: TGI
# [37] = molecular target: Serine/threonine-protein kinase N2 (Homo sapiens, UniProt Q16513); assay: Inhibition of human recombinant PKN2 by radiometric kinase assay
# [38] = molecular target: Mitogen-activated protein kinase 1 (Homo sapiens, UniProt P28482); assay: Inhibition of human recombinant ERK2 by radiometric kinase assay
# [39] = molecular target: Macrophage-stimulating protein receptor (Homo sapiens, UniProt Q04912); assay: Inhibition of human recombinant MST1R by radiometric kinase assay
# Chain of Macrophage-stimulating protein receptor (Q04912 25-304 limits assumed): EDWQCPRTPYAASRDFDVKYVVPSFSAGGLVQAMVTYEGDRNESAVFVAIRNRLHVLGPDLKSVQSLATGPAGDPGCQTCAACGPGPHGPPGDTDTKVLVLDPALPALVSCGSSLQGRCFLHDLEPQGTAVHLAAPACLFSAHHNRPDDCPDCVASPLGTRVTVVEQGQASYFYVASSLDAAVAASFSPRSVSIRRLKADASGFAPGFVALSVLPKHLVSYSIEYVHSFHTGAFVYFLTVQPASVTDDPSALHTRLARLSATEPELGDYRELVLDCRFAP
# Chain of Macrophage-stimulating protein receptor (Q04912 310-1400 limits assumed): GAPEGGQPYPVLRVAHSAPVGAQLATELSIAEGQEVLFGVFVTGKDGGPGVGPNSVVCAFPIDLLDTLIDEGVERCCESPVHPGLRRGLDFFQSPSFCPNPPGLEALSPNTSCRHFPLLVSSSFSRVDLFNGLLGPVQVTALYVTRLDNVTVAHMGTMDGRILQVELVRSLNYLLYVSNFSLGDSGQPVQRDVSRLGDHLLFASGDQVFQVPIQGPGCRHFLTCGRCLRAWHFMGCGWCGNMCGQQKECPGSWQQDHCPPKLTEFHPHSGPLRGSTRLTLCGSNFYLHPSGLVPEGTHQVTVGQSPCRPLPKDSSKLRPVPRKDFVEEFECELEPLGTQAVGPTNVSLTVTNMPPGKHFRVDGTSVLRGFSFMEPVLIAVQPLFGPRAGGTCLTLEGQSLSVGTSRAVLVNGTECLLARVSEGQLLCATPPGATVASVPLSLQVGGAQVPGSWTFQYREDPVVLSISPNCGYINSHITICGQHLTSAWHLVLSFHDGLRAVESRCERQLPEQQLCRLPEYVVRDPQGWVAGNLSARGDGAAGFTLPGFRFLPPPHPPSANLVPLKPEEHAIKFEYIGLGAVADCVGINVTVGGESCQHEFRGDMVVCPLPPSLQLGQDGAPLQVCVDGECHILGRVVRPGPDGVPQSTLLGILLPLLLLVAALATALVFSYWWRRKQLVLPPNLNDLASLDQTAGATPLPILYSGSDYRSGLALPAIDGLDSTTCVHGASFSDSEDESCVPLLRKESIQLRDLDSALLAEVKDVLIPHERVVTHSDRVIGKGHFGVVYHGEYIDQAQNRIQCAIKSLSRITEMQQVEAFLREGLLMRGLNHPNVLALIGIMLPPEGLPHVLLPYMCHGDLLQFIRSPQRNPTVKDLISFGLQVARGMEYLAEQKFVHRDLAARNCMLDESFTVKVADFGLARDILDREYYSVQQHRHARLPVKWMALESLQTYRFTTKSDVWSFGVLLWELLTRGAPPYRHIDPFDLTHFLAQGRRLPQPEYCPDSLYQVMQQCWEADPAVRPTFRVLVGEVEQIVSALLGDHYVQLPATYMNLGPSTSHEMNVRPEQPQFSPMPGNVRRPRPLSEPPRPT
# [40] = molecular target: Receptor tyrosine-protein kinase erbB-2 (Homo sapiens, UniProt P04626); assay: Inhibition of human recombinant ERBB2 by radiometric kinase assay
# Chain of Receptor tyrosine-protein kinase erbB-2 (P04626 whole entry): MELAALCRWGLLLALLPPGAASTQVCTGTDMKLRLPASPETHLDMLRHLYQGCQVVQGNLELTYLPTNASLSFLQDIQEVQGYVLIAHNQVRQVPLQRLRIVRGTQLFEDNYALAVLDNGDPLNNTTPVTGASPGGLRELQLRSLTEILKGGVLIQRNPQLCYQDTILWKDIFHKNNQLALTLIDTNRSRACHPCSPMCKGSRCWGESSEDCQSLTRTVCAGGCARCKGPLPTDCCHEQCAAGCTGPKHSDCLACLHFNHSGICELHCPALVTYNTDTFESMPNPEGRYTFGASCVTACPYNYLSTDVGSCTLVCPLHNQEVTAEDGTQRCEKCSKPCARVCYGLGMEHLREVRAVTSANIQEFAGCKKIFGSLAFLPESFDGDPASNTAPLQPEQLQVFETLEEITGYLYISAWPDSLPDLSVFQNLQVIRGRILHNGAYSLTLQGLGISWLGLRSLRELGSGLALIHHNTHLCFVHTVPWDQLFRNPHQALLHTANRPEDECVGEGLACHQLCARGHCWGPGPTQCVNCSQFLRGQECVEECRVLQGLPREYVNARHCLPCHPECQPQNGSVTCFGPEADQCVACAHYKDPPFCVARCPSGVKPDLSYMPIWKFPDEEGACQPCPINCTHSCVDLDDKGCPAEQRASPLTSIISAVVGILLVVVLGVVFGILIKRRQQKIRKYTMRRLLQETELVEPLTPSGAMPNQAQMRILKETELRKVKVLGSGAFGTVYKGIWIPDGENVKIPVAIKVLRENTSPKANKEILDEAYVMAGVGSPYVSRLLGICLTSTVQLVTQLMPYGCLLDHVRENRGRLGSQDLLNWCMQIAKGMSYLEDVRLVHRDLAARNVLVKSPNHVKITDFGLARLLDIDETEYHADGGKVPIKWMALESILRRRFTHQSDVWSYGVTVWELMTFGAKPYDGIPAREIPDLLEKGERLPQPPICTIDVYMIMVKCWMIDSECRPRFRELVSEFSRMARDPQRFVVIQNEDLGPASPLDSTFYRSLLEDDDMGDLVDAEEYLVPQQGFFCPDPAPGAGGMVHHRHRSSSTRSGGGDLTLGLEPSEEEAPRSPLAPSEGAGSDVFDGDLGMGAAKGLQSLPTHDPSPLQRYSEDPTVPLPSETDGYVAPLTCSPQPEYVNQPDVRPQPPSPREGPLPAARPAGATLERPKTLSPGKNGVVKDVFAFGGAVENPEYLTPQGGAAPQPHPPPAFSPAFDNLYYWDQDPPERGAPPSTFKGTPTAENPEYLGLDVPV
# [41] = test system: Mus musculus; assay: Inhibition of EGFR phosphorylation in human HCC827 cells xenografted in BALB/c mouse at 1 mg/kg/day, po for 3 days by immunohistochemistry; type: functional, organism-based
# [42] = molecular target: ALK tyrosine kinase receptor (Homo sapiens, UniProt Q9UM73); assay: Inhibition of human recombinant ALK by radiometric kinase assay
# [43] = test system: NCI-H1975; assay: Antitumor activity against human NCI-H1975 cells xenografted in BALB/c mouse assessed as inhibition of tumor growth administered orally once daily; type: functional, cell-based
# [44] = Binding affinity to […] EGFR L747-S752del, Sins mutant by KINOMEscan kinase binding assay
# [45] = molecular target: Serine/threonine-protein kinase pim-2 (Homo sapiens, UniProt Q9P1W9); assay: Inhibition of human recombinant PIM2 by radiometric kinase assay
# [46] = test system: Mus musculus; assay: Toxicity in human NCI-H1975 cells xenografted BALB/c mouse assessed as body weight loss at 50 mg/kg, po qd; type: organism-based; design: dose 50 mg/kg, route oral; conditions: in vivo
# [47] = molecular target: Serine/threonine-protein kinase N1 (Homo sapiens, UniProt Q16512); assay: Inhibition of human recombinant PKN1 by radiometric kinase assay
# [48] = molecular target: Insulin receptor (Homo sapiens, UniProt P06213); assay: Inhibition of human recombinant INSR by radiometric kinase assay
# Chain of Insulin receptor (P06213 28-758 limits assumed): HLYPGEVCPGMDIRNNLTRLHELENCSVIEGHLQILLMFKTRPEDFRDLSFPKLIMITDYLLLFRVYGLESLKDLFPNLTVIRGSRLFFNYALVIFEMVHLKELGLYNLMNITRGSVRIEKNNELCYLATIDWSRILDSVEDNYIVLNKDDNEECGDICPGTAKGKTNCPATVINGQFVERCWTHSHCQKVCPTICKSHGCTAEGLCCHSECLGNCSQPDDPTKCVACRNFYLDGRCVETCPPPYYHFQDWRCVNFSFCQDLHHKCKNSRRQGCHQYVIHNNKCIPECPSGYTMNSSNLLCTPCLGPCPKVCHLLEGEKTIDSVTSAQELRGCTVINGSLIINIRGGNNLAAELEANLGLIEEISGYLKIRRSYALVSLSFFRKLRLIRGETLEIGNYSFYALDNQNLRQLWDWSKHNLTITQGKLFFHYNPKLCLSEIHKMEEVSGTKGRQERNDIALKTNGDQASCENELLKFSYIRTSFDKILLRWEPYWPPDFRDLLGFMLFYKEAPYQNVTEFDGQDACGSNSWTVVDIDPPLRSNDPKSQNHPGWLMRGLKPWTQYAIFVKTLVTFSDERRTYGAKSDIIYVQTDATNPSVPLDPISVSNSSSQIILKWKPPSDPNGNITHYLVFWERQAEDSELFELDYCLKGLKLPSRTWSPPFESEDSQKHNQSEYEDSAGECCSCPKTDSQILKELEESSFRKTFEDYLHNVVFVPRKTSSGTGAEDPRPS
# Chain of Insulin receptor (P06213 763-1382 limits assumed): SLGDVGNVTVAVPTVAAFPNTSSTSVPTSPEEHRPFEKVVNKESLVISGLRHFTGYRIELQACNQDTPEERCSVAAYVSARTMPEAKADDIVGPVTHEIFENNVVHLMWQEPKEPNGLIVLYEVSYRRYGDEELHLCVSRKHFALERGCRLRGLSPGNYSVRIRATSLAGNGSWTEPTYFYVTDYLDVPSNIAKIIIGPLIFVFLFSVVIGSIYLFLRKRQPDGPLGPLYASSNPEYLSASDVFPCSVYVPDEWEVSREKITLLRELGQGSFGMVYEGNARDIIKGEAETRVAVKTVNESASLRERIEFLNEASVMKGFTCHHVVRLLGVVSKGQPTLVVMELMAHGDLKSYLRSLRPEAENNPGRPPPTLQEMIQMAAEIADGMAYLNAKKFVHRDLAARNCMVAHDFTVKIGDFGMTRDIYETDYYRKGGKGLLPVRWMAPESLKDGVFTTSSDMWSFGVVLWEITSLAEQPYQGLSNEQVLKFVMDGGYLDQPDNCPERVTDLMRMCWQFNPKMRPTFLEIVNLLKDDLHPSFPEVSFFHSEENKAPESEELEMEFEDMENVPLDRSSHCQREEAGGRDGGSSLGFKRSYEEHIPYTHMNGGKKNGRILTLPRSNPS
compound,measurement,setting,value
CN1CCN(c2ccc(Nc3ncc4nc(Nc5ccccc5)n(C5CCCC5)c4n3)cc2)CC1,IC50,[1],120 nM
same,IC50,[2],> 10 µM
same,IC50,[3],1100 nM
same,IC50,[4],> 10 µM
same,IC50,[5],360 nM
same,TGI,[6],Active
same,IC50,[7],> 10 µM
same,IC50,[8],> 5 µM
same,IC50,[9],> 10 µM
same,inhibition,[10],Active
same,Tmax,[11],1 h
same,IC50,[12],5 µM
same,AUC(0-t) at 24 h,[13],2140 ng·h/mL
same,IC50,[14],290 nM
same,IC50,[15],30 nM
same,IC50,[16],0.22 nM
same,IC50,[17],540 nM
same,IC50,[18],6.4 µM
same,IC50,[19],6.7 µM
same,IC50,[20],> 10 µM
same,IC50,[21],> 10 µM
same,IC50,[22],120 nM
same,Kd,[23],0.4 nM
same,TGI,[24],Active
same,IC50,[25],3.2 µM
same,IC50,[26],> 10 µM
same,IC50,[27],6.7 µM
same,TGI,[28],Active
same,half-life,[29],292 min
same,IC50,[30],15 nM
same,IC50,[31],1500 nM
same,Activity,[32],Active
same,Kd,[33],0.5 nM
same,IC50,[34],2600 nM
same,IC50,[35],> 10 µM
same,inhibition in vivo at 25 mg/kg,[36],35%
same,IC50,[37],> 10 µM
same,IC50,[38],> 10 µM
same,IC50,[39],> 10 µM
same,IC50,[40],60 nM
same,inhibition,[41],Active
same,IC50,[42],2300 nM
same,TGI,[43],Dose-dependent effect
same,Kd,[44],0.5 nM
same,IC50,[45],> 10 µM
same,Activity,[46],4.4%
same,IC50,[47],6.1 µM
same,IC50,[48],> 10 µM
